Data published in ChEMBL document CHEMBL2412982, “A medicinal chemists' guide to the unique difficulties of lead optimization for tuberculosis” (2013).

Legend:
[1] = T>MIC in Mycobacterium tuberculosis infected mouse; assay type: functional
[2] = fAUC/MIC in Mycobacterium tuberculosis infected mouse; assay type: functional
[3] = fCmax/MIC in Mycobacterium tuberculosis infected mouse; assay type: functional
[4] = Cmax/MIC in Mycobacterium tuberculosis infected mouse; assay type: functional
[5] = fT>MIC in Mycobacterium tuberculosis infected mouse; assay type: functional
[6] = AUC/MIC in Mycobacterium tuberculosis infected mouse; assay type: functional, Plasma

Structure (SMILES)	%T>MIC [1] [%]	fAUC/MIC [2]	fCmax/MIC [3]	Ratio [4]	fT>MIC [5] [%]	RatioAUC/MIC [6]
COc1nc2ccc(Br)cc2cc1[C@@H](c1ccccc1)[C@@](O)(CCN(C)C)c1cccc2ccccc12 [BEDAQUILINE]	80	1	0.1	10	0	100
CC(C)/N=c1\cc2n(-c3ccc(Cl)cc3)c3ccccc3nc-2cc1Nc1ccc(Cl)cc1 [CLOFAZIMINE]	0	<1	0.02	1	0	20
CC[C@@H](CO)NCCN[C@@H](CC)CO [ETHAMBUTOL]	35	25	8	11	25	33
NNC(=O)c1ccncc1 [ISONIAZID]	80	800	400	660	60	1300
OC(c1cc(C(F)(F)F)nc2c(C(F)(F)F)cccc12)C1CCCCN1 (centres undefined) [MEFLOQUINE]	0	1.6	0.1	0.5	0	8
COc1c(N2C[C@@H]3CCCN[C@@H]3C2)c(F)cc2c(=O)c(C(=O)O)cn(C3CC3)c12 [MOXIFLOXACIN]	100	53	10	17	80	88
O=[N+]([O-])c1cn2c(n1)OC[C@@H](OCc1ccc(OC(F)(F)F)cc1)C2 [PRETOMANID]	58	16	2	20	21	166
NC(=O)c1cnccn1 [PYRAZINAMIDE]	25	21	15	25	19	35
CO[C@H]1/C=C/O[C@@]2(C)Oc3c(C)c(O)c4c(O)c(c(/C=N/N5CCN(C)CC5)c(O)c4c3C2=O)NC(=O)/C(C)=C\C=C\[C@H](C)[C@H](O)[C@@H](C)[C@@H](O)[C@@H](C)[C@H](OC(C)=O)[C@@H]1C [RIFAMPIN]	100	300	20	100	100	1500
